In article PMC9983306, “Structurally Defined Water‐Soluble Metallofullerene Derivatives towards Biomedical Applications” (Angewandte Chemie (International Ed. in English), 2022):

Test: T1 relaxivity by NMR inversion-recovery
Type: physicochemical
Conditions: per molecule concentration
Protocol: The T 1 relaxivity values of water‐soluble Gd MBTs were tested on 60 MHz (1.4 T) and 300 MHz (7.1 T) NMR spectrometers (Table S1), together with a representative commercial GBCA gadodiamide (i.e., Omniscan^TM). […] The enhanced contrast was directly visualized on a 1.0 T MRI scanner, with 20 μM and 5 μM 8 d, 8 d′, 8 e, and gadodiamide (Figure 5a), and the imaging contrast is consistent with the measured relaxivity values. The preclusion of ion leakage by the robust EMF cage dictates that the real limiting factor of MBT contrast agents is the toxicity of the MBT structure, not individual Gd^3+ ions, which means the molecular relaxivity of the MBTs is the more appropriate and relevant parameter for clinical evaluations. […]
Dynamic light scatt ering ex periments w ere performed using a Malvern Z etasizer Nano Z S90 instrument w ith a standard laser source (4mW, 633nm), to measure the hydrodynamic s ize of the aggregates formed by the samples in s olution. 1 uM sample concentrations were used for all the samples measured. […]
Samples 8b, 8b′ and 8c (16 µM, or 16800 ppb Lu) were taken in dialysis bags (MWCO = 1kD) and dialyzed against 1 50 mL PBS 1x f or 7 days without changing diasylate (outside solution in the beaker). […] With a detection limit < 0.1 ppb, no Lu3+ ions w ere detected in the three solutions, confirming the cage confinement of the metal ions. […]

- r1 (1.4 T), T1 relaxivity (60 MHz (1.4 T) NMR): 4.4 mM⁻¹ s⁻¹
- r1 (7.1 T), T1 relaxivity (300 MHz (7.1 T) NMR): 3.9 mM-1S-1
Structure (SMILES): CNC(=O)CN(CCN(CCN(CC(=O)[O-])CC(=O)NC)CC(=O)[O-])CC(=O)[O-].[Gd+3] [gadodiamide]
